# Measurements reported in patent US20060062863A1, “Compositions for anti-obesity, health-restorative and health-promotional benefits” (priority 2004, published 2006).
# Experiment: Food intake and body weight in haloperidol-treated albino rats
# Assay type: in vivo
# Settings: for % change in body weight: day-21 vs initial value; for % change in food intake: during the 21-day period vs initial value
# Description: The results of administration of the Type-I saponins or the total extractives (comprising Type-I to -III compounds) of Chlorophytum arundinaceum on the attendant changes in the food intake and body weight of albino rats (270±20 grams) are given in Table-1. Administration of haloperidol causes obesity as it appreciably increases food intake and induces rapid weight gain. The feeder contained at least three times more pellets than are normally consumed. Food intake and the body weight were assessed for one week in all rats prior to initiation of administration of the test compound(s). Both Type-I saponins and the total extractives annulled the gluttonous craving for food due to haloperidol with appreciable decrease in weight gain, compared to the haloperidol group. […] Sibutramine is used as a recognized anorexic drug.
# [1] = haloperidol 20 mg/Kg i.p. once daily for 21 days, alone
# [2] = 10 mg/Kg p.o. once daily for 21 days + haloperidol 20 mg/Kg i.p.
Compound,% change in body weight [1],% change in food intake [1],% change in body weight [2],% change in food intake [2] [%]
O=C(CCCN1CCC(O)(c2ccc(Cl)cc2)CC1)c1ccc(F)cc1 [Haloperidol],+35.13%,+45.32%,–,–
CC(C)CC(N(C)C)C1(c2ccc(Cl)cc2)CCC1 (stereo not shown) [Sibutramine],–,–,+0.28%,−0.37
